Source: patent US10051861B2, “N-arylamidine-substituted trifluoroethyl sulfide derivatives as acaricides and insecticides” (BAYER CROPSCIENCE AG, priority 2011, dated 2018)
Read-outs that look alike come from different tables or passages of the source. Marks after values point to notes of the source that are not given here.

Key:
[1] = test system: greenhouse red spider mite (Tetranychus urticae); assay: Tetranychus urticae spray test, OP-resistant (TETRUR), bean leaf disks; format: in vivo; conditions: for pest or weed control at 500 g/ha: Tetranychus urticae, foliar, 144 h, read-out: efficacy (spider mites killed)
Protocol: (§1) After 6 days, the effect in % is determined.

[2] = logP by HPLC on reversed-phase columns (C 18), EEC Directive 79/831 Annex V.A8; format: physicochemical; conditions: for chromatographic logP: reversed-phase C18 HPLC column
Protocol: Calibration is carried out using unbranched alkan-2-ones (having from 3 to 16 carbon atoms) with known log P values (the log P values are determined by the retention times using linear interpolation between two successive alkanones).

[3] = test system: greenhouse red spider mite (Tetranychus urticae); assay: Tetranychus test, OP-resistant (TETRUR spray treatment); format: in vivo; conditions: application rate 500 g/ha, after 6 days
Protocol: as §1

[4] = test system: cattle ticks (Boophilus microplus); assay: Boophilus microplus injection test (BOOPMI Inj); format: in vivo; conditions: Rhipicephalus microplus, 168 h, read-out: efficacy (laying of fertile eggs)
Protocol: Solvent: dimethyl sulfoxide
1 μl of the active compound solution is injected into the abdomen of 5 engorged adult female cattle ticks (Boophilus microplus). The animals are transferred into dishes and kept in a climate-controlled room.
The activity is assessed after 7 days by laying of fertile eggs. Eggs whose fertility is not visible from the outside are stored in a climate-controlled cabinet until the larvae hatch after about 42 days. An efficacy of 100% means that none of the ticks has laid any fertile eggs; 0% means that all eggs are fertile.

[5] = test system: larvae of the mustard beetle (Phaedon cochleariae); assay: Phaedon cochleariae spray test (PHAECO); conditions: Phaedon cochleariae, 168 h, read-out: effect (beetle larvae killed)
[6] = application rate 500 g/ha, after 6 days
[7] = pH 2.7, [a] LC-MS, acidic range, pH 2.7, 0.1% aqueous formic acid/acetonitrile, read-out: logP(HCOOH)
[8] = pH 7.8, [b] LC-MS, neutral range, pH 7.8, 0.001 molar aqueous ammonium bicarbonate/acetonitrile, read-out: logP(neutral)
[9] = application rate 20 μg/animal, injection, after 7 days

| Structure (SMILES) | pest or weed control at 500 g/ha [5] [%] | pest or weed control at 500 g/ha [1, 6] [%] | pest or weed control at 0.02 mg [4, 9] [%] | other results |
| --- | --- | --- | --- | --- |
| Cc1cc(F)c(N=C(N)C(F)F)cc1SCC(F)(F)F [Ia-03] |  |  |  | efficacy (spider mites killed) [1, 6]: 100%; log P ([2]; pH 2.3): 2.2^[c]; efficacy (spider mites killed) [3]: 100% |
| Cc1cc(F)c(/N=C(\N)C2(F)CC2)cc1SCC(F)(F)F [Ia-27, 1-Fluoro-N′-{2-fluoro-4-methyl-5-[(2,2,2-trifluoroethyl)sulfanyl]phenyl}cyclopropanecarboximidamide] | 100 |  |  | pest or weed control at 500 g/ha [1]: 100%; pest or weed control at 0.02 mg [4]: 100%; chromatographic logP [2, 7]: 1.2 |
| Cc1cc(F)c(/N=C(/Nc2ccc(Cl)cc2)C(F)(F)F)cc1SCC(F)(F)F [Ia-31] | 100 | 100 |  | chromatographic logP [2, 7]: 4.73; chromatographic logP [2, 8]: 4.67 |
| Cc1cc(F)c(/N=C2\CCCN2C)cc1SCC(F)(F)F [Ia-39] |  | 100 | 100 |  |
| CN/C(=N\c1cc(SCC(F)(F)F)c(C)cc1F)c1cccc(Cl)c1 [Ia-44] |  | 100 | 100 |  |
| Cc1cc(F)c(/N=C(/Nc2ccc(C(F)(F)F)cc2)C(F)(F)F)cc1SCC(F)(F)F [Ia-45] | 100 | 80 |  | chromatographic logP [2, 7]: 4.82; chromatographic logP [2, 8]: 4.71 |
| Cc1cc(F)c(/N=C(/c2ccc(Cl)cc2)N(C)C)cc1SCC(F)(F)F [Ia-50] |  | 100 | 100 |  |
| Cc1cc(C)c(SCC(F)(F)F)cc1/N=C(\N)c1cccnc1 [Ia-66] |  | 100 | 100 |  |
| CN/C(=N\c1cc(SCC(F)(F)F)c(C)cc1F)c1ccncc1 [Ia-80] |  | 100 | 100 |  |
| Cc1cc(F)c(/N=C(\N)C(F)(F)Cl)cc1SCC(F)(F)F [Ia-115] | 100 | 100 | 100 |  |
| Cc1cc(F)c(/N=C(\N)C2(C#N)CC2)cc1SCC(F)(F)F [Ia-118] | 100 | 90 | 100 |  |
| Cc1cc(F)c(/N=C(\c2cccc(F)c2)N(C)C)cc1SCC(F)(F)F [Ia-120] |  | 100 | 100 |  |
| Cc1cc(F)c(/N=C(\c2ccc(Cl)s2)N(C)C)cc1SCC(F)(F)F [Ia-149, 5-Chloro-N′-{2-fluoro-4-methyl-5-[(2,2,2-trifluoroethyl)sulfanyl]phenyl}-N,N-dimethylthiophene-2-carboximidamide] | 100 | 90 |  | chromatographic logP [2, 7]: 2.11; chromatographic logP [2, 8]: 4.89 |
| Cc1cc(F)c(/N=C(\c2cccn2C)N(C)C)cc1SCC(F)(F)F [Ia-162, N′-{2-Fluoro-4-methyl-5-[(2,2,2-trifluoroethyl)sulfanyl]phenyl}-N,N,1-trimethyl-1H-pyrrole-2-carboximidamide] | 100 | 100 |  | chromatographic logP [2, 7]: 1.67; chromatographic logP [2, 8]: 4.11 |
| N/C(=N/c1ccc(Cl)c(SCC(F)(F)F)c1)C(F)(F)F [Ia-204, N′-{4-Chloro-3-[(2,2,2-trifluoroethyl)sulfanyl]phenyl}-2,2,2-trifluoroethanimidamide] | 83 | 90 |  | chromatographic logP [2, 7]: 3.1; chromatographic logP [2, 8]: 3.1 |
| FC(F)(F)CSc1cc(/N=C(\NC2CC2)c2ccc(Cl)nc2)c(Cl)cc1Cl [Ia-229] | 100 | 90 |  |  |
| Cc1cc(F)c([S+]([O-])CC(F)(F)F)cc1/N=C(/N)C(F)(F)F (stereo not drawn) [Ib-13] |  |  |  | efficacy (spider mites killed) [1, 6]: 100%; efficacy (spider mites killed) [3]: 100% |
| N/C(=N/c1cc([S@+]([O-])CC(F)(F)F)c(Cl)cc1Cl)C(F)(F)F [Ib-17] | 100 | 100 | 100 |  |
| N/C(=N/c1cc([S+]([O-])CC(F)(F)F)c(Br)cc1Br)C(F)(F)F (stereo not drawn) [Ib-18] | 83 | 80 | 100 |  |
| Cc1cc(F)c(/N=C(\N)C2(F)CC2)cc1[S+]([O-])CC(F)(F)F (stereo not drawn) [Ib-19, 1-Fluoro-N′-{2-fluoro-4-methyl-5-[(2,2,2-trifluoroethyl)sulfinyl]phenyl}cyclopropanecarboximidamide] |  |  |  | pest or weed control at 500 g/ha [1]: 100%; pest or weed control at 0.02 mg [4]: 100% |
| Cc1cc(F)c(/N=C2\CCCN2C)cc1[S+]([O-])CC(F)(F)F (stereo not drawn) [Ib-20] | 100 | 100 | 100 |  |
| CN/C(=N/c1cc([S+]([O-])CC(F)(F)F)c(Br)cc1Br)C(F)(F)F (stereo not drawn) [Ib-24] |  | 100 | 80 |  |
| Cc1cc(Cl)c(/N=C(\N)C2(Cl)CC2)cc1[S+]([O-])CC(F)(F)F (stereo not drawn) [Ib-27] | 100 | 100 |  |  |

| Structure (SMILES) | pest or weed control at 500 g/ha [5] [%] | pest or weed control at 500 g/ha [1, 6] [%] | pest or weed control at 0.02 mg [4, 9] [%] | other results |
| --- | --- | --- | --- | --- |
| Cc1cc(F)c(/N=C2\CCCN2c2ccc(C(F)(F)F)cc2)cc1[S+]([O-])CC(F)(F)F (stereo not drawn) [Ib-30] | 83 | 100 |  |  |
| Cc1cc(Cl)c(/N=C(\N)C(F)(F)C(F)(F)F)cc1[S+]([O-])CC(F)(F)F (stereo not drawn) [Ib-35] |  | 100 | 100 |  |
| Cc1cc(F)c(/N=C(\N)C(F)(F)C(F)(F)Cl)cc1[S+]([O-])CC(F)(F)F (stereo not drawn) [Ib-38] |  | 100 | 100 |  |
| Cc1cc(F)c(/N=C(\NC2CC2)C2CC2)cc1[S+]([O-])CC(F)(F)F (stereo not drawn) [Ib-39] | 100 | 100 |  |  |
| Cc1cc(F)c(/N=C(\N)C(Cl)(Cl)Cl)cc1[S+]([O-])CC(F)(F)F (stereo not drawn) [Ib-40] |  | 100 | 100 |  |
| Cc1cc(F)c(/N=C(\N)C(F)F)cc1[S+]([O-])CC(F)(F)F (stereo not drawn) [Ib-43] | 100 | 100 |  |  |
| Cc1cc(F)c(/N=C(/c2cccnc2)N(C)C)cc1[S+]([O-])CC(F)(F)F (stereo not drawn) [Ib-47] |  | 100 | 100 |  |
| Cc1cc(F)c(/N=C(\N)c2ccc(Cl)nc2)cc1[S+]([O-])CC(F)(F)F (stereo not drawn) [Ib-48] |  | 100 | 100 |  |
| CN/C(=N\c1cc([S+]([O-])CC(F)(F)F)c(C)cc1Cl)C(F)(F)F (stereo not drawn) [Ib-56] | 100 | 100 |  |  |
| N/C(=N/c1cc([S+]([O-])CC(F)(F)F)c(Cl)cc1Br)C(F)(F)F (stereo not drawn) [Ib-57] | 100 | 100 |  |  |
| CN/C(=N\c1cc([S+]([O-])CC(F)(F)F)c(C)cc1F)c1ccccn1 (stereo not drawn) [Ib-58] |  | 100 | 100 |  |
| CN(C)/C(=N/c1cc([S+]([O-])CC(F)(F)F)c(Br)cc1F)C(F)(F)F (stereo not drawn) [Ib-59] |  | 100 | 100 |  |
| Cc1cc(Cl)c(/N=C(/N)C(F)(F)F)cc1[S+]([O-])CC(F)(F)F (stereo not drawn) [Ib-68] | 100 | 100 | 100 |  |
| CN/C(=N/c1cc([S+]([O-])CC(F)(F)F)c(Br)cc1F)C(F)(F)F (stereo not drawn) [Ib-78] | 100 | 100 |  |  |
| [O-][S+](CC(F)(F)F)c1cc(/N=C(\NCC(F)(F)F)C2CC2)c(Cl)cc1Cl (stereo not drawn) [Ib-83] | 100 | 100 |  |  |
| Cc1cc(Cl)c([S+]([O-])CC(F)(F)F)cc1/N=C(\N)C(F)(F)F (stereo not drawn) [Ib-85] |  | 100 | 100 |  |
| CN/C(=N\c1cc([S+]([O-])CC(F)(F)F)c(Cl)cc1Cl)c1ccc(Cl)nc1 (stereo not drawn) [Ib-89] |  | 100 | 80 |  |
| Cc1cc(F)c(/N=C(/NCc2ccc(C(F)(F)F)cc2)C(F)(F)F)cc1[S+]([O-])CC(F)(F)F (stereo not drawn) [Ib-101] | 100 | 90 |  |  |
| N/C(=N/c1ccc(Cl)c([S+]([O-])CC(F)(F)F)c1)C(F)(F)F (stereo not drawn) [Ib-108, N′-{4-Chloro-3-[(2,2,2-trifluoroethyl)sulfinyl]phenyl}-2,2,2-trifluoroethanimidamide] | 83 | 100 | 100 | chromatographic logP [2, 7]: 2.25; chromatographic logP [2, 8]: 2.21 |
| CN/C(=N/c1ccc(Cl)c([S+]([O-])CC(F)(F)F)c1)C(F)(F)F (stereo not drawn) [Ib-110] | 100 | 100 |  |  |
| Cc1ccc(/N=C(/N)C(F)(F)F)cc1[S+]([O-])CC(F)(F)F (stereo not drawn) [Ib-111] | 100 | 90 |  |  |
| C#CCN/C(=N\c1cc([S+]([O-])CC(F)(F)F)c(C)cc1F)C1CC1 (stereo not drawn) [Ib-137] | 83 | 100 |  |  |
| Cc1cc(F)c(/N=C(/c2ccc(Cl)cc2)N2CCC(F)(F)CC2)cc1[S+]([O-])CC(F)(F)F (stereo not drawn) [Ib-143] | 83 | 90 |  |  |
